{
  "source": "patent US11883398B2",
  "about": "“Dipeptidylpeptidase 4 inhibition enhances lymphocyte trafficking, improving both naturally occurring tumor immunity and immunotherapy” (INSTITUT PASTEUR, priority 2015, dated 2024)",
  "molecules": {"B1": {"name": "mCXCL10: recombinant full length mouse CXCL10 (Peprotech) (protein, UniProt P17515 22-98, looked up)", "C-X-C motif chemokine 10": "IPLARTVRCNCIHIDDGPVRMRAIGKLEIIPASLSCPRVEIIATMKKNDEQRCLNPESKTIKNLMKAFSQKRSKRAP"}, "B2": {"name": "mCCL22: recombinant mouse chemokine (Peprotech) (protein, UniProt O88430 25-92, looked up)", "C-C motif chemokine 22": "GPYGANVEDSICCQDYIRHPLPSRLVKEFFWTSKSCRKPGVVLITVKNRDICADPRQVWVKKLLHKLS"}, "B3": {"name": "mCCL3: recombinant mouse chemokine (Peprotech) (protein, UniProt P10855 24-92, looked up)", "C-C motif chemokine 3": "APYGADTPTACCFSYSRKIPRQFIVDYFETSSLCSQPGVIFLTKRNRQICADSKETWVQEYITDLELNA"}, "B4": {"name": "mCCL4: recombinant mouse chemokine (Peprotech) (protein, UniProt P14097 24-92, looked up)", "C-C motif chemokine 4": "APMGSDPPTSCCFSYTSRQLHRSFVMDYYETSSLCSKPAVVFLTKRGRQICANPSEPWVTEYMSDLELN"}, "B5": {"name": "mCXCL9: recombinant mouse chemokine (Peprotech) (protein, UniProt P18340 22-126, looked up)", "C-X-C motif chemokine 9": "TLVIRNARCSCISTSRGTIHYKSLKDLKQFAPSPNCNKTEIIATLKNGDQTCLDPDSANVKKLMKEWEKKISQKKKQKRGKKHQKNMKNRKPKTPQSRRRSRKTT"}},
  "key": {"[1]": {"tested_on": "DPP8/9 over-expressing cells", "conditions": "cited from earlier work; for selectivity for DPP4 over DPP8 and 9: Huan et al. 2015; for selectivity towards DPP4: Madar et al. 2006, Gilibili et al. 2015"}, "DASH proteases": {"tested_on": "DASH proteases", "conditions": "WO2013/078059; Narra et al. 2007; cited from earlier work"}, "DPP8": {"target": "DPP8 (Homo sapiens, UniProt Q6V1X1)", "sequence (Q6V1X1 whole entry, species assumed)": "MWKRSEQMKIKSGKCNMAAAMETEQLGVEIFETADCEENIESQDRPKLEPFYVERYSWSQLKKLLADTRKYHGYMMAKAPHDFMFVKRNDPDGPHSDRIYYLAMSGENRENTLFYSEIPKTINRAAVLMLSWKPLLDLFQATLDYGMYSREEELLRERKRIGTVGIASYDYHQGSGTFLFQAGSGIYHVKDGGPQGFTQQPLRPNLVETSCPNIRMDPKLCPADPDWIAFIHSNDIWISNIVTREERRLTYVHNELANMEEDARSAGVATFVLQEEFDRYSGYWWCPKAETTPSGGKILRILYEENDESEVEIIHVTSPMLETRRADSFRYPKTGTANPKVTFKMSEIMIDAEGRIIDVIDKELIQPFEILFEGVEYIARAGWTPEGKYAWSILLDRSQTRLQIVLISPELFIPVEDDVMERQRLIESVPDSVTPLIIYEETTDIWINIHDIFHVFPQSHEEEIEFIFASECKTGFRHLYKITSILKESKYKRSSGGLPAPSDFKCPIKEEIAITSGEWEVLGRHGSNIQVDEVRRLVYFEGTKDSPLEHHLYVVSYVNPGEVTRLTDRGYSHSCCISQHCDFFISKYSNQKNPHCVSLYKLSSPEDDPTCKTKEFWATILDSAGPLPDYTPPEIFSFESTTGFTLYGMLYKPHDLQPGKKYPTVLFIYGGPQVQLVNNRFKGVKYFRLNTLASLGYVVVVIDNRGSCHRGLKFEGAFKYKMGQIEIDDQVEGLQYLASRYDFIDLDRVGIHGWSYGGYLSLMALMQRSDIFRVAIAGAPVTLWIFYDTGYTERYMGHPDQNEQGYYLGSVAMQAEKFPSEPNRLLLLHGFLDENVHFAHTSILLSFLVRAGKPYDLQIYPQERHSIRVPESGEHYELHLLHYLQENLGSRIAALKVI", "conditions": "Verspohl 2012; Huan et al. 2015; cited from earlier work"}, "DPP9": {"target": "DPP9 (Homo sapiens, UniProt Q86TI2)", "sequence (Q86TI2 whole entry, species assumed)": "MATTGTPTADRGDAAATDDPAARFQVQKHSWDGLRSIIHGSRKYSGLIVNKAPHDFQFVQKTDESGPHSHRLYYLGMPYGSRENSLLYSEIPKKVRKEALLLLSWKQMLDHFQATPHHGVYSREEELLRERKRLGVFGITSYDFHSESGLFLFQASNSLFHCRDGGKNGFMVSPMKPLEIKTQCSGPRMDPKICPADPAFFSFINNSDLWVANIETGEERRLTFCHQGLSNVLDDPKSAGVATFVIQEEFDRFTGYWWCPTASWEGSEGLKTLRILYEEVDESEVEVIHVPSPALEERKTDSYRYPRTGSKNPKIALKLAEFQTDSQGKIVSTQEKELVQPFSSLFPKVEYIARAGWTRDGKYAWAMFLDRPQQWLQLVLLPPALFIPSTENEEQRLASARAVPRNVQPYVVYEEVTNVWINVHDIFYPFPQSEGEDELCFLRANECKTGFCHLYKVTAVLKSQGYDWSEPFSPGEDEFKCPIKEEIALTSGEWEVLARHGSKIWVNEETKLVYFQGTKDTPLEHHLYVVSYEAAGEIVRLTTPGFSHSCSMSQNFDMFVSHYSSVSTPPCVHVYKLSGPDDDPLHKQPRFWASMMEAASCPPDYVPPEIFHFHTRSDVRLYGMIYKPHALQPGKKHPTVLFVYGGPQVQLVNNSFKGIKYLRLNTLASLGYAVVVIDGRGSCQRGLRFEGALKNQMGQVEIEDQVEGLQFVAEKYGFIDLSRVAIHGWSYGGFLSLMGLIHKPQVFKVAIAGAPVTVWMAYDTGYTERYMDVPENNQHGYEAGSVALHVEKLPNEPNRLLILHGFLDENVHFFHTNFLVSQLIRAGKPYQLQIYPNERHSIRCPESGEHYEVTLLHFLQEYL", "conditions": "Verspohl 2012; Huan et al. 2015; cited from earlier work"}, "mDPP4": {"target": "T1, mDPP4 (Mus musculus, UniProt P28843)", "T1 construct": "purchased Peprotech", "T1 sequence (P28843 whole entry)": "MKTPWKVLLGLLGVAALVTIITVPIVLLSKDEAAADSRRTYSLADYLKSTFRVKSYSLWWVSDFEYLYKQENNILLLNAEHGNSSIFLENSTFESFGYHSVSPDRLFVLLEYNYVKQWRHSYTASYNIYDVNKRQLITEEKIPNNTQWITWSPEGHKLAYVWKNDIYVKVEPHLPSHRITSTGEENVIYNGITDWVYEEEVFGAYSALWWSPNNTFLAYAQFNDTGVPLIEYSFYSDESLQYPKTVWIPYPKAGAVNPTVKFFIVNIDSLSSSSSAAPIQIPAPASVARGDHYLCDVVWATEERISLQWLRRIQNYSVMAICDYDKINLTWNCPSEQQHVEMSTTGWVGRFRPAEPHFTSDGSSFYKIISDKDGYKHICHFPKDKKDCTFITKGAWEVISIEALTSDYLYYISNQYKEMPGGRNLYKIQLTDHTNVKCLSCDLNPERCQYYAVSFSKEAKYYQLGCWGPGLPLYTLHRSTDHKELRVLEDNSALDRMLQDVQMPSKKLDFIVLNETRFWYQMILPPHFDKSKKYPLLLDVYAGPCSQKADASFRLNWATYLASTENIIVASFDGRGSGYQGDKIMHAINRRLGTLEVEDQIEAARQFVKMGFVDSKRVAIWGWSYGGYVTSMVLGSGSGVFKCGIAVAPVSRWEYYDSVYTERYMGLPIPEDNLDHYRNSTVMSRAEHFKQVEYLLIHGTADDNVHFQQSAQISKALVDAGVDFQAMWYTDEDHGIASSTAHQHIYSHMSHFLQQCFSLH", "test": "DPP4 processing of recombinant chemokines (SELDI-TOF mass spectrometry)", "assay_type": "biochemical", "conditions": "10 nM mDPP4, 30 min at 37° C.", "method": "Recombinant mDPP4, mCXCL10, mCXCL9, mCXCL11, mCCL2, mCCL3, mCCL4, mCCL5, mCXCL12 and mCCL22 were purchased from Peprotech. For surface-enhanced laser desorption/ionization-[…] (SELDI-TOF) mass spectrometry, chemokines were incubated in the presence or absence of 10 nM of mDPP4 for 30 min at 37° C. The digested product was applied onto an H4 protein chip, following the manufacturer's instructions and analyzed using the PROTEINCHIP™ SYSTEMS SERIES 4000 (Ciphergen). Data were analyzed using CIPHERGENEXPRESS Software."}, "B16F10 tumors": {"tested_on": "B16F10 tumors", "test": "Flow cytometry of leukocytes infiltrating B16F10 tumors", "assay_type": "in vivo, mouse", "conditions": "day 7 B16F10 tumors, 12-14 h after injection", "method": "B16F10 and M04 (Ovalbumin-expressing B16F10 cells, gift from C. Reis e Sousa) tumor cells were cultured in DMEM (Gibco) supplemented with 10% FCS (PAA), 0.1 mM non-essential amino acids, 1 mM sodium pyruvate, 10 mM Hepes, 70 μM beta-mercaptoethanol and 23 μg/ml gentamycin (all from Gibco). CT26 colon carcinoma cells were cultured in RPMI (Gibco) supplemented as described for DMEM. Cells for injections were passaged 1-2 times after thawing, before use. WT and genetically modified mice were subcutaneously injected with 2×10^5 B16 or 5×10^5 CT26 cells in the shaved right flank. When indicated, mice received an intra-tumoral injection of 1 μg of recombinant mCXCL10, 5 μg CpG-A in DOPTAP or vehicle control. For blocking of chemokine and chemokine receptors, WT mice were intraperitoneally injected with 100 μg of hamster a-mCXCR3 (clone CXCR3-173, BioLegend), 100 μg of hamster α-mCCR5 (clone HM-CCR5, BioLegend), 50 μg of rat anti-mCXCL10 (clone 134013, R&D systems) and 20 μg of rat-α-mCXCR4 (clone 2B11/CXCR4, BD Biosciences) or with respective isotype antibodies (hamster IgG (clone HTK888, BioLegend, used as control for mCXCR3 and mCCR5 blockage); rat IgG2a (clone 54447, R&D systems, used as control for mCXCL10 blockade) and rat IgG2b (clone A95-1, BD Biosciences, used as control for mCXCR4 blockade). Intraperitoneal injection was done one day before and 4, 8 and 12 days after tumor cell injection. For CXCL10 neutralization, antibodies were injected on day 2, 5, 8 and 11 after tumor cell injection. For immunotherapy protocols, mice were intraperitoneally injected with 100 μg of mouse α-CTLA-4 (clone 9D9, Bioxcell), 200 μg of PD1 (clone RMP1-14, Bioxcell), a combination of 100 μg of α-CTLA-4+200 μg of a-PD1 or control isotypes (100 μg […] and 200 μg rat IgG2a (clone 2A3), both from Bioxcell) on day 3, 6 and 9 after tumor cell implantation. For adoptive cell transfer experiments, Pmel-1 Thy-1.1^+Thy-1.1^+, Cxcr3^−/− Thy-1.1^+Thy-1.2^+ Pmel-1 or OT1 splenocytes were activated ex-vivo, by incubation with 1 nM of human gp100 (for Pmel-1 cells) or […] (for OT1 cells) peptides for 1h at room temperature with agitation. Splenocytes were then washed and resuspended in R10 supplemented with 30U/mL of recombinant human IL-2. CD8^+ T cells were expanded for 6-7 days before used. For analysis of tumor infiltrates, activated Cxcr3^+/+ Thy-1.1^+Thy-1.1^+ and Cxcr3^−/− Thy-1.1^+Thy-1.2^+ transgenic Pmel-1 CD8^+ T cells were mixed in a 1:1 ratio (total 1×10^6 cells) and injected intravenously into gender matched tumor-bearing mice (3 days after tumor cell injection). For analysis of tumor growth, activated OT1 cells were injected intravenously (1×10^5 cells per mouse) into gender matched tumor-bearing mice, 3 days after tumor cell injection. Tumor height and width were measured with a caliper and tumor volume was calculated (Elliptical volume=width^2×height×0.523). The model of metastatic melanoma was achieved by intravenous injection of 2×10^5 B16 tumor cells. 15 days after tumor cell injection, lungs were dissected, placed in Fekete's solution and metastatic foci were counted. Lungs with more than 100 metastatic nodules were defined as 100.\nFluorochrome-conjugated anti-mouse CD3 (clone145-2C11), CD8 (clone 53-6.7), CD4 (clone RM4-5), NK1.1 (clone PK136), CD49b (clone DX5), CD25 (clone PC61), B220 (clone RA3-6B2), Ly6G (clone 1A8), Ly6C (clone AL-21), CD11 b (clone M1/70) Siglec-F (clone E50-2440), MHCII IA-IE (clone M5/114.15.2), CD45.2 (clones 56-0454-82 and 109830), Thy-1.1 (clone HIS51), Thy-1.2 (clone 53-2.1), DPP4 (clone H194-112) and CXCR3 (clone CXCR3-173) were from eBiosciences and BD Biosciences. Fluorochrome conjugated anti-F4/80 (clone CI:A3-1) was from AbDserotec. For exclusion of dead cells, Live/Dead fixable Aqua reagent (Invitrogen) was used. For all staining protocols, cell suspensions were incubated with mouse CD16/CD32 Fc Blocking antibodies (BD Biosciences) prior to antibody. […]"}, "CXCR3-expressing T cells": {"tested_on": "CXCR3-expressing T cells", "test": "Model of trafficking into the peritoneal cavity", "assay_type": "in vivo, mouse", "conditions": "1 μg chemokine intraperitoneally", "method": "WT and Dpp4^−/− mice were intraperitoneally injected with PBS or 1 μg of mCXCL10, mCXCL9 or mCCL5 (all from Peprotech). At the indicated time points, mice were sacrificed and peritoneal cells were collected in 10 mL of PBS. For thioglycollate induced peritonitis mice were intraperitoneally injected with thioglycollate 3% weight/volume, 24 hours before collection of peritoneal cells.\nFluorochrome-conjugated anti-mouse CD3 (clone145-2C11), CD8 (clone 53-6.7), CD4 (clone RM4-5), NK1.1 (clone PK136), CD49b (clone DX5), CD25 (clone PC61), B220 (clone RA3-6B2), Ly6G (clone 1A8), Ly6C (clone AL-21), CD11 b (clone M1/70) Siglec-F (clone E50-2440), MHCII IA-IE (clone M5/114.15.2), CD45.2 (clones 56-0454-82 and 109830), Thy-1.1 (clone HIS51), Thy-1.2 (clone 53-2.1), DPP4 (clone H194-112) and CXCR3 (clone CXCR3-173) were from eBiosciences and BD Biosciences. Fluorochrome conjugated anti-F4/80 (clone CI:A3-1) was from AbDserotec. For exclusion of dead cells, Live/Dead fixable Aqua reagent (Invitrogen) was used. For all staining protocols, cell suspensions were incubated with mouse CD16/CD32 Fc Blocking antibodies (BD Biosciences) prior to antibody. For analysis of peritoneal cavity infiltrates, cells were washed and incubated with a cocktail of fluorochrome-conjugated antibodies. For analysis of tumor infiltrates, B16F10 tumors were collected at the indicated time points and digested in PBS supplemented with 2.7 mg/ml of Collagenase (Roche) and 23U/ml of Deoxyribonuclease I (Invitrogen) for 30 min, 37° C. Digestion was terminated by adding PBS supplemented with 2% FCS and 5 mM EDTA (Gibco). Tumor cell suspensions were obtained after filtration over a 70 μm cell strainer. For determination of cell numbers, the […] COUNTING BEADS reagent (Invitrogen) was used. Flow cytometry was performed using a BD LSRFORTESSA or a BD CANTO cytometer, with DIVA software. Computer analysis was done with FLOWJO (Treestar)."}},
  "data": [
    {"molecule": "C#C[C@H]1CC[C@@H](C#N)N1C(=O)CNC1(C)CCN(c2cc(C(=O)O)ccn2)CC1", "note": "[ABT-279]", "values": [
      {"measurement": "selectivity for DPP4 over DPP8 and 9", "setting": "[1]", "result": "highly-selective inhibitors of DPP4"},
      {"measurement": "selectivity towards DPP4", "setting": "[1]", "result": "highly selective towards DPP4"}
    ]},
    {"molecule": "N[C@H]1CC(C(=O)N2CCn3c(nnc3C(F)(F)F)C2)=CC[C@@H]1c1cc(F)c(F)cc1F", "note": "[ABT-341]", "values": [
      {"measurement": "selectivity for DPP4 over DPP8 and 9", "setting": "[1]", "result": "highly-selective inhibitors of DPP4"},
      {"measurement": "selectivity towards DPP4", "setting": "[1]", "result": "highly selective towards DPP4"}
    ]},
    {"molecule": "CC(C)(C)[C@H](N)C(=O)N1CCC[C@H]1B(O)O", "note": "[ARI-4175]", "values": [
      {"measurement": "inhibition of DASH proteases", "setting": "DASH proteases", "result": "inhibiting a multitude of DASH proteases"}
    ]},
    {"molecule": "CC(C)[C@H](N)C(=O)N1CCC[C@H]1B(O)O", "note": "[Val-boroPro]", "values": [
      {"measurement": "inhibition of DASH proteases", "setting": "DASH proteases", "result": "inhibiting a multitude of DASH proteases"}
    ]},
    {"molecule": "Cn1c(=O)cc(N2CCC[C@@H](N)C2)n(Cc2ccccc2C#N)c1=O", "note": "[alogliptin]", "values": [
      {"measurement": "effect on DPP8 activity", "setting": "DPP8", "result": "no effect"},
      {"measurement": "effect on DPP9 activity", "setting": "DPP9", "result": "no effect"}
    ]},
    {"molecule": "COc1cc2c(cc1OC)[C@@H]1C[C@H](N)[C@@H](N3C[C@@H](CF)CC3=O)CN1CC2", "note": "[carmegliptin]", "values": [
      {"measurement": "selectivity for DPP4 over DPP8 and 9", "setting": "[1]", "result": "highly-selective inhibitors of DPP4"},
      {"measurement": "selectivity towards DPP4", "setting": "[1]", "result": "highly selective towards DPP4"}
    ]},
    {"molecule": "N#C[C@@H]1C[C@H](F)CN1C(=O)[C@@H](N)C(c1ccc(F)cc1)c1ccc(F)cc1", "note": "[denagliptin]", "values": [
      {"measurement": "selectivity for DPP4 over DPP8 and 9", "setting": "[1]", "result": "highly-selective inhibitors of DPP4"},
      {"measurement": "selectivity towards DPP4", "setting": "[1]", "result": "highly selective towards DPP4"}
    ]},
    {"molecule": "mCCL2: recombinant mouse chemokine (Peprotech)", "values": [
      {"measurement": "susceptibility to DPP4 N-terminal truncation", "setting": "mDPP4", "result": "in vitro cleavage"}
    ]},
    {"molecule": "mCXCL12: recombinant mouse chemokine (Peprotech)", "values": [
      {"measurement": "susceptibility to DPP4 N-terminal truncation", "setting": "mDPP4", "result": "in vitro cleavage"}
    ]},
    {"molecule": "B1", "values": [
      {"measurement": "lymphocyte recruitment into the tumor parenchyma after intratumoral mCXCL10", "setting": "B16F10 tumors", "result": "no increase in lymphocyte migration"},
      {"measurement": "infiltration of CXCR3-expressing T cells into the peritoneal cavity in control mice", "setting": "CXCR3-expressing T cells; control chow", "result": "failed to induce significant infiltration of CXCR3-expressing T cells"},
      {"measurement": "susceptibility to DPP4 N-terminal truncation", "setting": "mDPP4", "result": "sensitive to DPP4 N-terminal truncation"}
    ]},
    {"molecule": "B2", "values": [
      {"measurement": "susceptibility to DPP4 N-terminal truncation", "setting": "mDPP4", "result": "in vitro cleavage"}
    ]},
    {"molecule": "B3", "values": [
      {"measurement": "susceptibility to DPP4 N-terminal truncation", "setting": "mDPP4", "result": "in vitro cleavage"}
    ]},
    {"molecule": "B4", "values": [
      {"measurement": "susceptibility to DPP4 N-terminal truncation", "setting": "mDPP4", "result": "in vitro cleavage"}
    ]},
    {"molecule": "B5", "values": [
      {"measurement": "chemokine-induced leukocyte migration into the peritoneal cavity", "setting": "CXCR3-expressing T cells; WT and Dpp4-/- mice, 6 h", "result": "migration of NK cells into the peritoneal cavity"},
      {"measurement": "susceptibility to DPP4 N-terminal truncation", "setting": "mDPP4", "result": "insensitive to DPP4-mediated truncation"}
    ]}
  ]
}
